Structures are written as SMILES.

For the assay, the target named is T1, human sodium-dependent glucose transporter 2 (SGLT2, SLC5A2) (Homo sapiens, UniProt P31639).
T1 construct: Bases 21 to 2039 correspond to the complete coding region of human SGLT2; expressed in transfected cells
T1 sequence (P31639 1-672): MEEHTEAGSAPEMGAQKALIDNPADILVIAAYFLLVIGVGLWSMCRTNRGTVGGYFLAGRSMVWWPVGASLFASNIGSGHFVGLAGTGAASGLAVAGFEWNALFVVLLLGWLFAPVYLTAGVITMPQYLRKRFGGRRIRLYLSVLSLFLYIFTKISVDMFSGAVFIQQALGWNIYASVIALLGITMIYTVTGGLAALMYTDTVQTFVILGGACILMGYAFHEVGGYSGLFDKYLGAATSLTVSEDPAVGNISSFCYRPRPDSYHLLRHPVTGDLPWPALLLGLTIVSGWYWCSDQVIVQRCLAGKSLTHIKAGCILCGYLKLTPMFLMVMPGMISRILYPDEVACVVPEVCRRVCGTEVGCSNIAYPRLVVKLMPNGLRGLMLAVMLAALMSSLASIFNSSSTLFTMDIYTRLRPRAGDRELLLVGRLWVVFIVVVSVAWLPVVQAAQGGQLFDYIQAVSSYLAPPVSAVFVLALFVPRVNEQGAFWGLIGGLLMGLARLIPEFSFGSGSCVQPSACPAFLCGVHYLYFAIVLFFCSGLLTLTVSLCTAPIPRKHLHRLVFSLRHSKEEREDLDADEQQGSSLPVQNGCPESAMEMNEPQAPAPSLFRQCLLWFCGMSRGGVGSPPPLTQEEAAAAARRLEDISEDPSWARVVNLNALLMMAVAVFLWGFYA
The experiment in a line: Inhibition of the transport activity of human SGLT2 in vitro (α-MDG uptake in CHO-TRex-hSGLT2 cells). It is filed as cell-based. As to conditions: 50 μM α-MDG, 120 min at 37° C. From the text: Inhibition of the Transport Activity of the Human Sodium-Dependent Glucose Transporter 2 (SGLT2, SLC5A2) In Vitro
1. Cloning of an Expression Vector for Human SGLT2
The cDNA for human SGLT2 was introduced into the pcDNA4/TO vector (Invitrogen) by means of standard methods of molecular biology as described in Sambrook et al. (Molecular Cloning, A Laboratory Manual, Second Edition). […] Bases 21 to 2039 correspond to the complete coding region of human SGLT2.
2. Production of a Recombinant Cell Line with Inducible Expression of Human SGLT2
The expression vector for human SGLT2 was introduced into CHO-TREx cells (Invitrogen) by means of FuGene6 lipofection (Roche). To select single cell clones, 600 μg/ml of Zeocin (Invitrogen) was added to the cell culture medium (nutrient mixture F-12 (Ham), (Invitrogen) supplemented with 10% fetal calf serum (FBS Gold, PAA), 10 μg/ml Blasticidin S(CN Biosciences), 100 units/ml penicillin, 100 units/ml streptomycin). The functionality of the single cell clones resulting from the selection was tested via their uptake activity for radiolabeled methyl-α-D-glucopyranoside. That cell clone with the highest uptake activity for methyl-α-D-glucopyranoside, referred to hereinafter as CHO-TRex-hSGLT2, was selected for the further experiments and cultured further in the presence of 600 μg/ml Zeocin.
3. Measurement of the Inhibiting Action of Test Substances on the Uptake of methyl-α-D-glucopyranoside (α-MDG)
CHO-TRex-hSGLT2 cells were seeded in cell culture medium in a concentration of 50 000 cells per well in Cytostar-T scintillating 96-well plates (Amersham Biosciences) and cultivated for 24 h. The expression of the recombinant human SGLT2 was induced by adding 1 μg/ml tetrazykline for a further 24 h. For α-MDG uptake experiments, the cells were washed with PBS and then starved at 37° C. in starvation medium (PBS supplemented with 10% fetal calf serum) for 1 hour. After a further washing step with transport assay buffer (140 mM sodium chloride, 2 mm potassium chloride, 1 mm magnesium chloride, 1 mm calcium chloride, 10 mm HEPES/Tris, pH 7.5), the cells were incubated at room temperature either in the absence or presence of test substances of different concentration for 15 min. The test substances were diluted correspondingly in transport assay buffer proceeding from a 10 mm stock solution in dimethyl sulfoxide (40 μl/well). The assay was subsequently started by adding 10 μl/well of a mixture of radiolabeled methyl-α-D-[U-^14C]glucopyranoside (Amersham) and unlabeled methyl-α-D-glucopyranoside (Acros). The final concentration of methyl-α-D-glucopyranoside in the assay was 50 μM. After an incubation time of 120 min at 37° C., the reaction was stopped by adding 50 μl/well of 10 mM methyl-α-D-glucopyranoside in transport assay buffer (4° C.), and the radioactivity taken up into the cells was determined in a MicroBeta Scintillation Microplate Reader (Wallac).
The half-maximum inhibiting action of the test substances (IC50 value) was determined as follows: • 1. Determination of the value for 0% inhibition. This is the measurement in the absence of substance, measured in sodium-containing transport assay buffer. • 2. Determination of the value for 100% inhibition. This is the measurement in the absence of substance, measured in sodium-free transport assay buffer (140 mM choline chloride, 2 mM potassium chloride, 1 mM magnesium chloride, 1 mM calcium chloride, 10 mM HEPES/Tris, pH7.5). • 3. Calculation of the percentage inhibition values of those measurements which were carried out in the presence of different concentrations of test substance. From this, it was then possible to determine that concentration of the test substance which reduces the uptake of the methyl-α-D-glucopyranoside by 50% (IC50 value).

A word on the IC50: it is the concentration that gives 50% inhibition. As for `CCc1ccc(Cc2cc(C3OC(CO)C(F)(F)C(O)C3O)ccc2Cl)cc1` (centres unmarked) [Example 1], the half-maximal inhibitory concentration (IC50) is 12 nM.

With `CCOc1ccc(Cc2cc(C3OC(CO)C(F)(F)C(O)C3O)ccc2Cl)cc1` (centres unmarked) [Example 2], the 50% inhibitory concentration (IC50) was 18 nM.

`CCc1ccc(Cc2cc(C3OC(CO)C(F)C(O)C3O)ccc2Cl)cc1` (centres unmarked) [Example 3]: the IC50 came to 8 nM.

With `COc1ccc(Cc2cccc(C3OC(CO)C(F)C(O)C3O)c2)cc1` (centres unmarked) [Example 5], the IC50 was 5 nM.

In turn, `CCc1ccc(Cc2cc(C3OC(CO)C(F)C(O)C3O)ccc2Cl)s1` (centres unmarked) [Example 6] showed an IC50 of 12 nM.

On to `OCC1OC(c2ccc(Cl)c(Cc3cc4ccccc4s3)c2)C(O)C(O)C1F` (centres unmarked) [Example 7], for which the IC50 came out at 15 nM.

In turn, `CCOC(=O)OCC1OC(c2ccc(F)c(Cc3ccc(OC)cc3)c2)C(O)C(O)C1F` (centres unmarked) [Example 8] had an IC50 of 1400 nM.

With `COc1ccc(Cc2cc(C3OC(CO)C(F)C(O)C3O)ccc2F)cc1` (centres unmarked) [Example 9], the IC50 worked out at 32 nM.

In turn, `CCOC(=O)OCC1OC(c2ccc(F)c(Cc3ccc(OC)cc3)c2)C(O)C(O)C1(F)F` (centres unmarked) [Example 10] displayed a half-inhibitory concentration (IC50) of 1400 nM.

As for `COc1ccc(Cc2cc(C3OC(CO)C(F)(F)C(O)C3O)ccc2F)cc1` (centres unmarked) [Example 11], the IC50 is 54 nM.

`CCOC(=O)OCC1OC(c2ccc(OC)c(Cc3ccc(OC)cc3)c2)C(O)C(O)C1F` (centres unmarked) [Example 12] displayed an IC50 of 2700 nM.

`COc1ccc(Cc2cc(C3OC(CO)C(F)C(O)C3O)ccc2OC)cc1` (centres unmarked) [Example 13]: half-maximal inhibition (IC50) was put at 31 nM.

With `COc1ccc(Cc2cc(C3OC(CO)C(F)(F)C(O)C3O)ccc2OC)cc1` (centres unmarked) [Example 15], inhibition was half-maximal at 80 nM (IC50).

For the molecule `CCOC(=O)OCC1OC(c2ccc(Cl)c(Cc3ccc(OCC)cc3)c2)C(O)C(O)C1F` (centres unmarked) [Example 16], half-maximal inhibition (IC50) was put at 2700 nM.

As for `CCOc1ccc(Cc2cc(C3OC(CO)C(F)C(O)C3O)ccc2Cl)cc1` (centres unmarked) [Example 17], the concentration for half-maximal inhibition (IC50) turned out to be 10 nM.

`CCOC(=O)OCC1OC(c2ccc(Cl)c(Cc3ccc(OCC)cc3)c2)C(O)C(O)C1(F)F` (centres unmarked) [Example 18] came in with an IC50 of 897 nM.

The molecule `CCOC(=O)OCC1OC(c2ccc(Cl)c(Cc3ccc(OC)cc3)c2)C(O)C(O)C1(F)F` (centres unmarked) [Example 21] showed an IC50 of 339 nM.

On to `COc1ccc(Cc2cc(C3OC(CO)C(F)(F)C(O)C3O)ccc2Cl)cc1` (centres unmarked) [Example 22], for which the IC50 was found to be 9 nM.

For the molecule `CCOC(=O)OCC1OC(c2ccc(Cl)c(Cc3ccc(OC(F)(F)F)cc3)c2)C(O)C(O)C1F` (centres unmarked) [Example 24], the IC50 worked out at 976 nM.

`OCC1OC(c2ccc(Cl)c(Cc3ccc(OC(F)(F)F)cc3)c2)C(O)C(O)C1F` (centres unmarked) [Example 25]: half-maximal inhibition (IC50) required 41 nM.

`CCOC(=O)OCC1OC(c2ccc(Cl)c(Cc3ccc(OC(F)(F)F)cc3)c2)C(O)C(O)C1(F)F` (centres unmarked) [Example 26] returned an IC50 of over 10000 nM.

The molecule `OCC1OC(c2ccc(Cl)c(Cc3ccc(OC(F)(F)F)cc3)c2)C(O)C(O)C1(F)F` (centres unmarked) [Example 27] yielded an IC50 of 199 nM.

Molecule `OC[C@H]1O[C@@H](c2ccc(Cl)c(Cc3ccc(O)cc3)c2)[C@H](O)[C@@H](O)C1(F)F` [Example 30] came in with an IC50 of 15 nM.

As for `CC(C)Oc1ccc(Cc2cc([C@@H]3O[C@H](CO)C(F)(F)[C@H](O)[C@H]3O)ccc2Cl)cc1` [Example 31], it took 42 nM to reach half-maximal inhibition (IC50).

`Cc1ccc(C2OC(CO)C(F)(F)C(O)C2O)cc1Cc1ccc(O)cc1` (centres unmarked) [Example 33] had a concentration for half-maximal inhibition (IC50) of 38 nM.

In turn, `COc1ccc(Cc2cc(C3OC(CO)C(F)(F)C(O)C3O)ccc2C)cc1` (centres unmarked) [Example 34] displayed an IC50 of 27 nM.

Molecule `CCOC(=O)OCC1OC(c2ccc(Cl)c(Cc3ccc(OC)cn3)c2)C(O)C(O)C1F` (centres unmarked) [Example 35] showed an IC50 of 12600 nM.

For the molecule `COc1ccc(Cc2cc(C3OC(CO)C(F)C(O)C3O)ccc2Cl)nc1` (centres unmarked) [Example 36], the IC50 stood at 304 nM.

In turn, `CCOC(=O)OCC1OC(c2ccc(Cl)c(Cc3ccc(OC)cn3)c2)C(O)C(O)C1(F)F` (centres unmarked) [Example 37] showed an IC50 of 11200 nM.

The molecule `COc1ccc(Cc2cc(C3OC(CO)C(F)(F)C(O)C3O)ccc2Cl)nc1` (centres unmarked) [Example 38] registered a half-maximal inhibitory concentration (IC50) of 393 nM.

For `CCOC(=O)OC[C@H]1O[C@@H](c2ccc(OC(F)(F)F)c(Cc3ccc(OC)cc3)c2)[C@H](O)[C@@H](O)[C@@H]1F` [Example 39], the IC50 is 19800 nM.

On to `COc1ccc(Cc2cc([C@@H]3O[C@H](CO)[C@@H](F)[C@H](O)[C@H]3O)ccc2OC(F)(F)F)cc1` [Example 40], for which the midpoint of inhibition, the IC50, lay at 412 nM.

For `CCOC(=O)OC[C@H]1O[C@@H](c2ccc(OC(F)(F)F)c(Cc3ccc(OC)cc3)c2)[C@H](O)[C@@H](O)C1(F)F` [Example 41], the IC50 is 12800 nM.

Molecule `COc1ccc(Cc2cc([C@@H]3O[C@H](CO)C(F)(F)[C@H](O)[C@H]3O)ccc2OC(F)(F)F)cc1` [Example 42] displayed an IC50 of 982 nM.

Take `OC[C@H]1O[C@@H](c2ccc(Cl)c(Cc3ccc(Cl)cc3)c2)[C@H](O)[C@@H](O)[C@@H]1F` [Example 44]: the half-inhibitory concentration (IC50) is 24 nM.

`OC[C@H]1O[C@@H](c2ccc(Cl)c(Cc3ccc(Cl)cc3)c2)[C@H](O)[C@@H](O)C1(F)F` [Example 46] gave a half-inhibitory concentration (IC50) of 75 nM.

In turn, `COc1ccc(Cc2cc([C@@H]3O[C@H](CO)[C@@H](F)[C@H](O)[C@H]3O)ccc2C(F)(F)F)cc1` [Example 48] came in with a 50% inhibitory concentration (IC50) of 74 nM.

For `CCOC(=O)OC[C@H]1O[C@@H](c2ccc(C(F)(F)F)c(Cc3ccc(OC)cc3)c2)[C@H](O)[C@@H](O)C1(F)F` [Example 49], half-maximal inhibition (IC50) required 8000 nM.

On to `COc1ccc(Cc2cc([C@@H]3O[C@H](CO)C(F)(F)[C@H](O)[C@H]3O)ccc2C(F)(F)F)cc1` [Example 50], for which inhibition was half-maximal at 154 nM (IC50).

For the molecule `COc1ccc(Cc2cc(C3OC(CO)C(F)C(O)C3O)ccc2Br)cc1` (centres unmarked) [Example 56], the half-maximal inhibitory concentration (IC50) turned out to be 9.4 nM.

Turning to `CCc1ccc(Cc2cc(C3OC(CO)C(F)C(O)C3O)ccc2C)cc1` (centres unmarked) [Example 61], half-maximal inhibition (IC50) required 10 nM.

The values are drawn from US20110059910A1, “Novel aromatic fluoroglycoside derivatives, pharmaceuticals comprising said compounds and the use thereof” (SANOFI-AVENTIS, priority 2008, published 2011).
